{
  "source": "patent US12029728B2",
  "about": "“Small molecules with anti-protozoan activity” (New Mexico Tech University Research Park Corporation, priority 2018, dated 2024)",
  "key": {"L. major-infected MDMs": {"system": "L. major-infected MDMs", "test": "L. major-infected human MDMs, quantitative cell bioimaging", "type": "cell-based, Leishmania major", "conditions": "1 μM, 5 μM, 10 μM", "experimental": "Human MDMs were cultured on glass slides and incubated with metacyclic L. major for 24 hours to allow for internalization of parasites. After the 24-hour L. major incubation period, extracellular parasites were removed from the culture. 24 hours after the removal of extracellular parasites, infected cells were treated with vehicle control (DMSO), 5 μM MTF, 1 μM Compound 2, 5 μM Compound 2, 10 μM Compound 2, 2 μM Compound 7, or 20 μM Compound 7. Following treatment, the cells were fixed with 2% paraformaldehyde and subsequently stained with the DNA stain Hoechst 33342. The stained cover slips were transferred onto glass slides, and quantitative cell bioimaging was utilized to determine the number of amastigotes per 500 cells using a CellInsight CX5 High Content screening platform."}, "T. cruzi epimastigotes [1]": {"system": "T. cruzi epimastigotes", "test": "MIC against T. cruzi epimastigotes, ATP assay", "type": "cell-based", "conditions": "Trypanosoma cruzi, 48 hours at 30° C.", "experimental": "A 1:20 working dilution of T. cruzi epimastigotes was prepared in LIT1029 medium from a saturated (˜4×10^6 cells/mL) culture. 100 μL of the 1:20 working dilution was plated, and the epimastigotes were incubated with 50 μM, 25 μM, 12.5 μM, 6.25 μM, 3.13 μM, 1.5 μM, or 0 μM Compound 2 for 48 hours at 30° C. After incubation with Compound 2, T. cruzi viability was assessed via an ATP assay. […] An increase in relative light units (RLU) indicates the presence of ATP and viable cells. Phenylarsine oxide (PAO) was used as a control."}, "[2]": {"system": "L. major-infected PBMC cells", "test": "L. major-infected PBMC cells, Hoechst micrographs", "type": "cell-based, Leishmania major", "conditions": "40 μM", "experimental": "Human peripheral blood mononuclear cells (PBMC) were plated onto polylysine-coated glass slides in 24-well plates and allowed to differentiate towards monocyte-derived macrophages (MDMs). Non-adherent cells were removed 48-hours post plating. Adherent monocytes were left to further differentiate for another 48 hours to MDMs. Following the completion of the differentiation period, MDMs were treated with vehicle control (DMSO), […], […], Compound 4, Compound 6, Compound 7, Compound 8, Compound 9, Compound 10, […]"}, "Jurkat cells": {"system": "Jurkat cells", "test": "MTT cell survival assay, Jurkat", "type": "cell-based", "conditions": "Homo sapiens, 48 hours at 37° C., read-out: IC50 (GI50), cell survival", "experimental": "(§1) The GI50 (IC50), the concentration at which 50% cell survival is seen upon treatment with a compound, was determined for Compound 2 in Jurkat, U87, HeLa, and ARPE cells. Cells were cultured in 96-well plates and incubated with 50 μM, 25 μM, 12.5 μM, 6 μM, 3 μM, 1.5 μM, or 0 μM of Compound 2 for 48 hours at 37° C. Following the incubation period, a 3-(4,5-dimethylthiazol-2-yl)-2,5-diphenyl tetrazolium bromide (MTT) assay was performed. In brief, a 10% volume of MTT was added to each well. Cells were incubated with MTT for 2 hours, at which time cell supernatant was removed and cells were taken into 100 μL DMSO. The absorbance of cell solutions was then read at 595 nm. A decrease in absorbance indicated a decrease in cell survival."}, "HeLa cells": {"system": "HeLa cells", "test": "MTT cell survival assay, HeLa", "type": "cell-based", "conditions": "Homo sapiens, 48 hours at 37° C., read-out: IC50 (GI50), cell survival", "experimental": "as §1"}, "T. cruzi epimastigotes [3]": {"system": "T. cruzi epimastigotes", "test": "T. cruzi epimastigote toxicity, visually assessed", "type": "cell-based, Trypanosoma cruzi", "conditions": "48 hours at 30° C.", "experimental": "A 1:20 working dilution of T. cruzi epimastigotes was prepared in LIT1029 medium from a saturated (˜4×10^6 cells/mL) culture. 100 μL of the 1:20 working dilution was plated, and the epimastigotes were incubated with a compound of the disclosure at varying concentrations for 48 hours at 30° C. Following T. cruzi epimastigote treatment with a compound of the disclosure, the toxicity of compounds towards T. cruzi epimastigotes was visually assessed."}, "[4]": {"system": "T. cruzi-infected VERO cells", "test": "Treatment of T. cruzi-infected VERO cells, confocal microscopy", "type": "cell-based, Trypanosoma cruzi", "conditions": "5 μM, 5 days", "experimental": "2×10^4 VERO cells were plated in individual confocal dishes and allowed to adhere for 16 hours at 37° C. […] The T. cruzi-infected dishes were incubated with ˜2×10^6 T. cruzi/mL for 24 hours at 37° C. to allow for internalization of parasites. T. cruzi parasites expressed tdTomato, which allowed for visualization of parasites within cells. After the 24-hour T. cruzi incubation period, extracellular parasites were removed from culture dishes. The cells were washed 3 times with cell culture media (10% fetal bovine serum; 1% penicillin/streptomycin). Designated plates were then incubated with 5 μM Compound 2 or 5 μM Compound 7 for 5 days at 37° C. Cells were then fixed in 2% paraformaldehyde and tdTomato fluorescence in cells was assessed via confocal microscopy."}, "[5]": {"system": "T. cruzi amastigotes and trypomastigotes", "test": "Viability of tdTomato T. cruzi amastigotes and trypomastigotes, fluorescence", "type": "cell-based, Trypanosoma cruzi", "conditions": "25 μM, 48 hours at 37° C.", "experimental": "The viability of a mixture of T. cruzi amastigotes and trypomastigotes after exposure to 25 μM of the compounds of the disclosure was determined. 2×10^5 parasites/100 μL were plated in 96-well plates. Parasites expressing tdTomato were used to assess parasite viability using fluorescence measurements. Parasites were incubated with 25 μM of the compounds of the disclosure for 48 hours at 37° C. After the incubation period, the viability of amastigotes and trypomastigotes was assessed by measuring the fluorescence intensity at 510 nm-590 nm using a Tecan plate reader, where the presence of fluorescence indicated viable amastigotes/trypomastigotes."}, "[6]": {"system": "T. gondii-infected ARPE cells", "test": "Treatment of T. gondii-infected ARPE cells, imaging", "type": "cell-based, Toxoplasma gondii", "conditions": "for T. gondii in ARPE cells: 4 days", "experimental": "ARPE cells were cultured at confluency in a 24 well plate. Cells were incubated with T. gondii (ATCC PRA-310) for 1 hour at 37° C. to allow for T. gondii internalization. After the 1-hour T. gondii incubation period, extracellular T. gondii was removed from culture and cells were washed 3 times with cell media. […] Cells were visualized using an EVOS cell imaging system. The effect of a 3-day Compound 2 treatment on T. gondii-infected ARPE cells was also investigated. 2×10^4 ARPE cells were infected with ˜1×10^6 T. gondii parasites as described in the above paragraph. Cells were then incubated with 5 μM Compound 2 for 3 days at 37° C. Following incubation with Compound 2, cells were washed 3 times in cell media, fixed with 4% paraformaldehyde, stained with DAPI, and visualized with confocal microscopy."}},
  "data": [
    {"smiles": "O=C(NO)C(c1ccccc1)c1c(-c2ccc3ccccc3c2)[nH]c2ccccc12", "note": "(stereo not drawn) [Compound 2, N-hydroxy-2-(2-(naphthalen-2-yl)-1H-indol-3-yl)-2-phenylacetamide]", "values": [
      {"measurement": "total number of parasites per cell", "setting": "L. major-infected MDMs", "result": "decreased the total number of parasites per cell in a dose dependent manner"},
      {"measurement": "MIC", "setting": "T. cruzi epimastigotes [1]", "result": "~6", "unit": "µM"},
      {"measurement": "number of parasites/PBMC cell", "setting": "[2]", "result": "decreases the number of parasites/PBMC cell"},
      {"measurement": "IC50", "setting": "Jurkat cells", "result": "7.97 ± 1.06", "unit": "µM"},
      {"measurement": "IC50", "setting": "HeLa cells", "result": "13.7 ± 0.75", "unit": "µM"},
      {"measurement": "Concentration at which T. cruzi epimastigote death is greater than or equal to ~99%", "setting": "T. cruzi epimastigotes [3]", "result": 6, "unit": "µM"},
      {"measurement": "T. cruzi infection in VERO cells", "setting": "[4]", "result": "eradication of T. cruzi infection"},
      {"measurement": "toxicity to T. cruzi amastigotes and trypomastigotes", "setting": "[5]", "result": "most toxic"},
      {"measurement": "T. gondii in ARPE cells", "setting": "[6]; 2 μM", "result": "clearance of T. gondii from ARPE cells"},
      {"measurement": "T. gondii infection of ARPE cells", "setting": "[6]; 5 μM, 3 days", "result": "cleared ARPE cells of T. gondii infection"},
      {"measurement": "T. gondii in ARPE cells", "setting": "[6]; 5 μM", "result": "clearance of T. gondii from ARPE cells"},
      {"measurement": "T. gondii infection of ARPE cells", "setting": "[6]; 5 μM, 5 days", "result": "cleared ARPE cells of T. gondii infection"}
    ]}
  ]
}
